These are literature values, as cited in patent publication US20240293789A1, “Encapsulation of Functional Additives in Partially-Open Microcapsules” (priority 2023, published 2024).

The structures appear in SMILES notation.

The conditions of this data set: common solvents used for the encapsulated materials; reference table.
Consider `Cc1cccc(C)c1` [m-xylene], for which the solubility in water entry was “Insoluble”.

`COCCOCCOC` [diethylene glycol dimethyl ether]: the solubility in water result is recorded as “Miscible”.

As for `CCOCC` [diethyl ether], the solubility in water is reported as 7.5 g/100 g. Take `CCCCCC` [hexane]: the solubility in water was 0.0014 g/100 g. For `C1CCCCC1` [cyclohexane], the solubility in water is listed as 0.0055 g/100 g. On to `CCCCCCC` [heptane], for which the solubility in water is on record as 0.01 g/100 g. For the compound `Cc1ccc(C)cc1` [p-xylene], the solubility in water entry was “Insoluble”. As for `CCO` [ethanol], the solubility in water result was “Miscible”.

On to `Cc1ccccc1C` [o-xylene], for which the solubility in water result is given as “Insoluble”. Take `CN(C)P(N(C)C)N(C)C` [Hexamethylphosphorous triamide (HMPT), Hexamethylphosphorous triamide]: the solubility in water entry was “Miscible”. Regarding `CCOC(C)=O` [ethyl acetate], the solubility in water is listed as 8.7 g/100 g. Take `COCCOC` [1,2-dimethoxy-ethane (glyme, DME), 1,2-dimethoxy-ethane]: the solubility in water entry is “Miscible”. As for `CCCCC` [pentane], the solubility in water is on record as 0.04 g/100 g. For `OCC(O)CO` [glycerin], the solubility in water result was “Miscible”.
